This is an account of results in PMC11274943, “Discovery of Benzisothiazolone Derivatives as Bifunctional Inhibitors of HIV-1 Reverse Transcriptase DNA Polymerase and Ribonuclease H Activities” (Biomolecules, 2024).

The structures appear in SMILES notation.

Common to all, as to test: biochemical
Common to all, as to assay type: biochemical

Test [1] addresses T1, WT HIV-1 RT RNase H activity (Human immunodeficiency virus type 1 group M subtype B, UniProt P04585).
T1 construct: made in house
Here is the method: (§1) WT (wild-type) RT, and RTs harboring the NNRTI-resistant mutations K101E, K103N, Y181C, Y188C, G190A and P236L, were overexpressed and purified to homogeneity as described previously. The RT concentration was determined spectrophotometrically at 280 nm using an absorbance coefficient of 260,450 M^−1·cm^−1. The 7-hydroxy tropolone derivative 19,616 (2,7-dihydroxy 2,4,6-cyclo-heptatrien-1-one) was purchased from Molecular Diversity Preservation International (Basel, Switzerland). […] The benzisothiazolone derivatives were procured from MolPort (New York, NY, USA) or Enamine (Kyiv, Ukraine). The DNA and RNA oligonucleotides were synthesized and purified by Integrated DNA Technologies (Coralville, IA, USA). All other reagents were of the highest quality available and were used without further purification.
Compounds were screened at a final concentration of 10 µM in 1× assay buffer (50 mM Tris pH 8.0, 60 mM KCl, 5 mM MgCl2) containing 1% DMSO in 384-well Greiner black polystyrene plates (VWR catalog # 82051-272). A total of 10 µL of intermediate diluted compounds (100 µM in 10% DMSO) was transferred into assay plates using the Evolution-3 (EP3) (Perkin Elmer, Waltham, MA, USA) automated liquid handling platform outfitted with a 384-well transfer head. A total of 40 µL of RT-RNase H enzyme (60 ng per well) were then dispensed into each well using the Titertek MAP-C2 reagent dispenser platform (Huntsville, AL, USA). A total of 50 µL of the RNA/DNA duplex (140 nM) substrate was then dispensed into each well using the MAP-C2 dispenser, and the assay plates were then incubated at room temperature for 20 min. After 20 min, the assay was terminated by the addition of 10 µL of 1 M EDTA pH 9.0 stop buffer. Relative fluorescent unit (RFU) signals, Excitation 490 nm and Emission 528 nm (Cutoff 515 nm), were captured on the Spectromax M5e plate reader (Molecular Devices, Menlo, CA, USA). […] The template also calculated the plate signal-to-background (S:B) ratios (mean maximum signal/mean minimum signal) and Z’-factor coefficient HTS performance statistics.
The following RNA/DNA T/P substrate was used in the present study: an 18-nucleotide RNA template (RNA-18T: 5′-[…]-3′) was annealed to an 18-nucleotide primer (DNA-18T: 5′-[…]-3′), as described previously. Fluorescein and IowaBlack FQTM were covalently attached to the 3′- and 5′-ter-mini of the RNA and DNA oligonucleotides, respectively.
The FRET-based RNase H cleavage assays were carried out as described previously. Fluorescence was measured with a SpectraMax M2 microplate spectrofluorometer (Molecular Devices, San Jose, CA, USA) using an excitation wavelength of 490 nm and an emission wavelength of 528 nm. Data were analyzed using SoftMax Pro software, version 4.7.1 (Molecular Devices, San Jose, CA, USA).
We implemented a rapid, robust and inexpensive fluorescence-based 384-well assay for the measurement of RT RNase H activity, previously described by Parniak et al.. The substrate comprises an 18-nucleotide 3′-fluorescein-labeled heteropolymeric RNA annealed to a complementary 5′-dabcyl-modified DNA. RT cleaves the RNA strand of this substrate close to the 3′ end, promoting the dissociation of the fluorescein-labeled RNA fragment and generating a detectable fluorescent signal. We used this HTS assay to screen 65,239 compounds at a final concentration of 10 µM.

In test [2] the target is T2, G190A HIV-1 RT DNA-dependent DNA polymerase activity (Human immunodeficiency virus type 1 group M subtype B, UniProt P04585, G777A).
T2 construct: made in house
Here is the method: as §1
(§2) DDDP assays were also performed using a QuantiFluor ONE based spectrophotometric assay to detect double-stranded DNA synthesized by recombinant HIV-1 RT [14]. The reaction contained 40 nM of a template/primer comprising a 200 nt DNA template (5′-[…] […]-[…]-[…] […] […]-3′) annealed to an 18-nucleotide DNA primer (5′-[…]-3′), and a mix of 50 mM Tris-HCl pH 7.8, 50 mM NaCl, 10 mM MgCl2 and 50 µM dNTP. The reactions were stopped after 45 min by adding the detection reagent containing 1 × Quant-Fluor One (Promega) and 12.5 mM ethylenediaminetet-raacetic acid; the samples were transferred to a 96-well black plate, and fluorescence was measured at excitation/emission (490/535 nm).

Test [3] concerns the target T3, K101E HIV-1 RT DNA-dependent DNA polymerase activity (Human immunodeficiency virus type 1 group M subtype B, UniProt P04585, K688E).
T3 construct: made in house
Here is the method: as §1, §2

In test [4] the test system is K101E HIV-1 RT DNA-dependent DNA polymerase activity. The settings on record: K101E RT; fold resistance IC50 mutant/IC50 WT. Here is the method:
as §1, §2

Test [5] deals with T4, K103N HIV-1 RT DNA-dependent DNA polymerase activity (Human immunodeficiency virus type 1 group M subtype B, UniProt P04585, K690N).
T4 construct: made in house
Here is the method: as §1, §2

For test [6], the system named is K103N HIV-1 RT DNA-dependent DNA polymerase activity. The following applies: K103N RT; fold resistance IC50 mutant/IC50 WT. Here is the method:
as §1, §2

Test [7] deals with T5, P236L HIV-1 RT DNA-dependent DNA polymerase activity (Human immunodeficiency virus type 1 group M subtype B, UniProt P04585, P823L).
T5 construct: made in house
Here is the method: as §1, §2

Test [8] deals with P236L HIV-1 RT DNA-dependent DNA polymerase activity. The following applies: P236L RT; fold resistance IC50 mutant/IC50 WT. Here is the method:
as §1, §2

For test [9], the target named is T6, WT HIV-1 RT DNA-dependent DNA polymerase activity (Human immunodeficiency virus type 1 group M subtype B, UniProt P04585).
T6 construct: made in house
Here is the method: as §1, §2

Test [10] has as its target T7, Y181C HIV-1 RT DNA-dependent DNA polymerase activity (Human immunodeficiency virus type 1 group M subtype B, UniProt P04585, Y768C).
T7 construct: made in house
Here is the method:
as §1, §2

The subject of test [11] is Y181C HIV-1 RT DNA-dependent DNA polymerase activity. The following applies: Y181C RT; fold resistance IC50 mutant/IC50 WT. Here is the method: as §1, §2
For test [12], the target named is T8, Y188C HIV-1 RT DNA-dependent DNA polymerase activity (Human immunodeficiency virus type 1 group M subtype B, UniProt P04585, Y775C).
T8 construct: made in house
Here is the method: as §1, §2

The subject of test [13] is Y188C HIV-1 RT DNA-dependent DNA polymerase activity. The settings on record: Y188C RT; fold resistance IC50 mutant/IC50 WT. Here is the method: as §1, §2

By IC50 is commonly meant the concentration at which inhibition is half-maximal. For the compound `CCN(CC)S(=O)(=O)c1cccc(-n2sc3ccccc3c2=O)c1` [Compound 4, N,N-diethyl-3-(3-oxobenzo[d]isothiazol-2(3H)-yl)benzenesulfonamide], the IC50 in [1] was 260 ± 80 nM; in [2], 1700 ± 1000 nM; in [3], 1800 ± 700 nM; in test [5] it was 2100 ± 700 nM; in test [7], 1600 ± 900 nM; in test [9] it was 1100 ± 300 nM. Moreover, the IC50 in [10] came out at 500 ± 200 nM; in [12] it was 300 ± 100 nM. In addition, the “Inhibition of RT DNA polymerase activity Fold-R” value amounted to 1.6 in test [4]; 1.9 in [6]; 1.5 in [8]; 0.45 in test [11]; 0.3 in [13].

As to `CCOC(=O)Cc1csc(-n2sc3ccccc3c2=O)n1` [Compound 2, ethyl 2-(2-(3-oxobenzo[d]isothiazol-2(3H)-yl)thiazol-4-yl)acetate], the IC50 in test [1] came to 130 ± 40 nM; in test [2], 1930 ± 490 nM; in test [3], 4880 ± 1560 nM; in [5] it was 3280 ± 1530 nM; in test [7] it was 5130 ± 1680 nM; in [9], 2640 ± 1850 nM. Also, the IC50 amounted to 710 ± 100 nM in [10] and 530 ± 80 nM in test [12]. In addition, the “Inhibition of RT DNA polymerase activity Fold-R” value in test [4] is given as 1.8; in [6], 1.2; in test [8], 1.9; in test [11] it was 0.3; in [13] it was 0.2.

In the case of `Cc1ccc(-n2sc3ccccc3c2=O)cc1S(=O)(=O)N1CCCCC1` [Compound 1, 2-(4-methyl-3-(piperidin-1-ylsulfonyl)phenyl)benzo[d]isothiazol-3(2H)-one], the concentration for half-maximal inhibition (IC50) in test [1] turned out to be 160 ± 30 nM; in test [2] it was 1600 ± 880 nM; in test [3], 7330 ± 7050 nM; in test [5], 3660 ± 1840 nM; in test [7], 2220 ± 180 nM; in test [9], 5970 ± 3100 nM. The results for the IC50 in [10] and in test [12] were 610 ± 60 nM and 140 ± 10 nM, respectively. Moreover, the “Inhibition of RT DNA polymerase activity Fold-R” value in test [4] was found to be 1.2; in [6] it was 0.6; in [8] it was 0.4; in test [11], 0.1; in [13] it was 0.02.
